Measurements reported in the supplement of paper PMC6045584.

Tests used:
Assay in all cases: area under dose-response curve of surviving fraction (unscaled, Aref=0) (surviving fraction x log10(nM)); higher = more resistant
Settings in all cases: exposure time: 5 days; dose range 0.5-1000 nM
[1] = compound: CCn1c(C(=O)N(C2CC2)C2CC2)cc2c3c(ncn3C)c(Nc3cc(C)n(C)n3)nc21
Procedure, shortened: (§1)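 Inhibitor was applied to tumour cell lines at eight concentrations (0.5 to 1000 nM) for five days in 384-well plates. Luminescence from CellTiter-Glo, scaled to DMSO-only wells, gave surviving fractions in three screens per line, and these were fitted by 3-parameter logistic regression with the drc R package. The area under the curve is an unscaled activity area. Aref was 0, and dose was on a log10 scale.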

SORAFENIB = compound: CNC(=O)c1cc(Oc2ccc(NC(=O)Nc3ccc(Cl)c(C(F)(F)F)c3)cc2)ccn1 [SORAFENIB]
Procedure, shortened: as §1

[2] = compound: CNCc1ccc(-c2[nH]c3cc(F)cc4c3c2CCNC4=O)cc1
Procedure, shortened: as §1

FORETINIB = compound: COc1cc2c(Oc3ccc(NC(=O)C4(C(=O)Nc5ccc(F)cc5)CC4)cc3F)ccnc2cc1OCCCN1CCOCC1 [FORETINIB]
Procedure, shortened: as §1

[3] = compound: COc1cc2ncnc(Nc3ccc(F)c(Cl)c3)c2cc1NC(=O)/C=C/CN1CCCCC1
Procedure, shortened: as §1

[4] = compound: C[C@@H](Oc1cc(-c2cnn(C3CCNCC3)c2)cnc1N)c1c(Cl)ccc(F)c1Cl
Procedure, shortened: as §1

ABIRATERONE = compound: C[C@]12CC[C@H](O)CC1=CC[C@@H]1[C@@H]2CC[C@]2(C)C(c3cccnc3)=CC[C@@H]12 [ABIRATERONE]
Procedure, shortened: as §1

DASATINIB = compound: Cc1nc(Nc2ncc(C(=O)Nc3c(C)cccc3Cl)s2)cc(N2CCN(CCO)CC2)n1 [DASATINIB]
Procedure, shortened: as §1

TEMOZOLOMIDE = compound: Cn1nnc2c(C(N)=O)ncn2c1=O [TEMOZOLOMIDE]
Procedure, shortened: as §1

XAV-939 = compound: Oc1nc(-c2ccc(C(F)(F)F)cc2)nc2c1CSCC2 [XAV-939]
Procedure, shortened: as §1

SOTRASTAURIN/AEB071 = compound: CN1CCN(c2nc(C3=C(c4c[nH]c5ccccc45)C(=O)NC3=O)c3ccccc3n2)CC1 [SOTRASTAURIN/AEB071]
Procedure, shortened: as §1

OLAPARIB = compound: O=C(c1cc(Cc2n[nH]c(=O)c3ccccc23)ccc1F)N1CCN(C(=O)C2CC2)CC1 [OLAPARIB]
Procedure, shortened: as §1

CRIZOTINIB = compound: C[C@@H](Oc1cc(-c2cnn(C3CCNCC3)c2)cnc1N)c1c(Cl)ccc(F)c1Cl [CRIZOTINIB]
Procedure, shortened: as §1

MLN-4924 = compound: NS(=O)(=O)OC[C@@H]1C[C@@H](n2ccc3c(N[C@H]4CCc5ccccc54)ncnc32)C[C@@H]1O [MLN-4924]
Procedure, shortened: as §1

Test System	area under dose-response curve [1]	area under dose-response curve (SORAFENIB)	area under dose-response curve [2]	area under dose-response curve (FORETINIB)	area under dose-response curve [3]	area under dose-response curve [4]	area under dose-response curve (ABIRATERONE)	area under dose-response curve (DASATINIB)	area under dose-response curve (TEMOZOLOMIDE)	area under dose-response curve (XAV-939)	area under dose-response curve (SOTRASTAURIN/AEB071)	area under dose-response curve (OLAPARIB)	area under dose-response curve (CRIZOTINIB)	area under dose-response curve (MLN-4924)
SJSA1 BONE	3.42	3.31	5.61	5.45	3.54	3.21	3.63	3.23	3.28	3.64				
BT20 BREAST	3.56		3.01	2.97	3.27	2.71	3.73	2.46	3.53	3.66	3.14	2.92		
HCC202 BREAST	4.17				1.81	4.02	3.88					2.74		
SCC90 HEADNECK	3.25		3.19		1.84	3.19	4.01	2.21	3.49	3.4	2.96	3.24	3.27	1.64
NY BONE	3.17	3.41		2.96	3.15	2.97	3.56	2	3.45	3.27	3.48	3.27		2.47
SCC47 HEADNECK	3.18	3.24	3.48		2.3	3.1	3.98	2.21	3.61	3.53	3.57	3.46		2.46
CAL72 BONE	3.63	3.59	3.26	3.09	3.26	3.32	3.67	1.77	3.47	3.18	3.55	3.24		2.83
93VU HEADNECK	3.21	3.6	3.13	3.15	1.8	3.15	3.9	1.68	3.5	3.51	3.06		3.62	2.42
SUM159 BREAST		3.15	3.53		3.52	3.42	3.35	2.84	3.44		3.57	3.45	3.63	3.12
CME SYNOVIAL	4.04	4.2	2.5		4.38	3.05	4.4	2.06	4.38	4.09	4.01	2.56		2.38
DU4475 BREAST	2.83		2.68	2.98		2.23	3.18	2.37	3.12				2.9	1.46
SUM149.B1*.S BREAST	3.62	3.92			3.06	3.1	3.93	2.05	3.73	3.73	3.26		3.8	2.42
JURKAT HAEMATOPOIETIC AND LYMPHOID TISSUE	3.54	3.55	3.28	3.02	3.18	2.75	3.49	2.79		3.29	3.54		2.68	1.92
YAMATO SYNOVIAL	4.14	4.27		2.34	4.37	1.83	4.72	2.5	4.22	4.04	3.66		2.3	
MG63 BONE	3.25	3.52	3.36	2.87	3.25	2.86		1.88	3.4	3.05	3.44	3.26		2.01
SG27 HEADNECK	3.25	3.79		3.23	3.28	3.15	3.22	2.16	3.68		3.57	3.27	3.57	2.95
SCC36 HEADNECK	3.52	3.74	2.8	3.13	1.81	2.51	3.63	1.53	3.63		3.02	2.84		2.11
MDAMB453 BREAST	3.37	3.59	3.18		3.06	3.17	3.51	3.37	3.62	3.47	3.19	3.22		2.43
HCC1806 BREAST	3.46	3.16	2.77		2.42	2.87	3.71	1.53	3.62	3.59	3.26	2.84	3.08	1.35
SG32 HEADNECK	3.55	4.91	2.77	2.95	2.87	2.92		1.29	4.29	3.64				2.59
MDAMB134 BREAST	3.44	3.71	2.86			2.51	3.48	2.13	3.51	3.4	2.77	3.02		2.2
NCIH441 LUNG	3.28		3.19	3.13	3.01	3.16	3.41	2.55	3.69	3.35	3.4	3.38		2.76
